Test results taken from ChEMBL document CHEMBL4184284, “MF-8, a novel promising arylpiperazine-hydantoin based 5-HT7 receptor antagonist: In vitro drug-likeness studies and in vivo pharmacological evaluation” (Bioorg Med Chem Lett, 2018).
Activity calls are given as the source filed them. The rule behind the calls is not given here.

Key:
[1] = tested on: HepG2; experiment: Cytotoxicity against human HepG2 cells assessed as ATP level at 10 uM after 120 mins by bioluminescence-based assay relative to control; type: cell-based; conditions: hepg2, 2 h
[2] = tested on: Mus musculus; experiment: Antidepressant-like activity in Swiss albino mouse assessed as decrease in immobility time at 10 to 20 mg/kg, ip administered 30 mins prior to test measured for last 4 mins of 6 mins observation by forced swim test; type: functional, organism-based
[3] = tested on: Rattus norvegicus; experiment: Antidepressant-like activity in Wistar rat assessed as decrease in immobility time at 30 mg/kg, ip administered 30 mins prior to test measured for 5 mins by forced swim test; type: functional; design: scale not given: the % may be the effect or the level left
[4] = tested on: P-gp; experiment: Activity at recombinant human Pgp expressed in cell membranes assessed as basal ATPase activity at 200 uM after 200 mins by P-gp Glo assay relative to control; type: ADME; conditions: cell membranes expressing recombinant human P-gp, read-out: Activity
[5] = Drug level in rat liver microsomes treated with MF-8 at 50 uM preincubated for 5 mins followed by NADPH addition measured after 30 mins by UPLC-MS analysis; type: ADME, microsome; conditions: 0.5 h
[6] = Drug level in mouse liver microsomes treated with MF-8 at 50 uM preincubated for 5 mins followed by NADPH addition measured after 30 mins by UPLC-MS analysis; type: ADME, microsome; conditions: 0.5 h
[7] = Retention time of the compound by UPLC-MS analysis; type: physicochemical
[8] = Drug level in human liver microsomes treated with MF-8 at 50 uM preincubated for 5 mins followed by NADPH addition measured after 30 mins by UPLC-MS analysis; type: ADME, microsome; conditions: 0.5 h
[9] = tested on: Rattus norvegicus; experiment: Antidepressant-like activity in Wistar rat assessed as decrease in immobility time at 2.5 mg/kg, ip administered 30 mins prior to test measured for 5 mins by forced swim test; type: functional; design: scale not given: the % may be the effect or the level left
[10] = tested on: Rattus norvegicus; experiment: Antidepressant-like activity in Wistar rat assessed as decrease in immobility time at 1.25 mg/kg, ip administered 30 mins prior to test measured for 5 mins by forced swim test; type: functional; design: scale not given: the % may be the effect or the level left
[11] = tested on: Mus musculus; experiment: Antidepressant-like activity in Swiss albino mouse assessed as decrease in immobility time at 10 mg/kg, ip administered 30 mins prior to test measured for last 4 mins of 6 mins observation by forced swim test; type: functional, organism-based
[12] = tested on: Mus musculus; experiment: Anxiolytic-like activity in Swiss albino mouse assessed as increase in number of punished crossings at 1 mg/kg, ip administered for 30 mins measured for 1 min post 3 sec electric shock by four-plate test; type: functional, organism-based
[13] = Effective permeability of the compound at 200 uM after 5 hrs by PAMPA; type: ADME; conditions: read-out: Peff
[14] = tested on: HEK293; experiment: Cytotoxicity against HEK293 cells assessed as reduction in cell viability at 1 uM after 48 hrs by EZ4U labeling based assay; conditions: human, hek293, 48 h
[15] = Drug metabolism in rat liver microsomes assessed as DM1451 formation at 50 uM preincubated for 5 mins followed by NADPH addition measured after 30 mins by UPLC-MS analysis; type: ADME, microsome; conditions: 0.5 h
[16] = Intrinsic clearance in mouse liver microsomes at 50 uM preincubated for 5 mins followed by NADPH addition measured up to 30 mins; type: ADME, microsome; conditions: read-out: CLH
[17] = Drug metabolism in mouse liver microsomes assessed as hydroxylated main metabolite formation at 50 uM preincubated for 5 mins followed by NADPH addition measured after 30 mins by UPLC-MS analysis; type: ADME, microsome; conditions: 0.5 h
[18] = Intrinsic clearance in rat liver microsomes at 50 uM preincubated for 5 mins followed by NADPH addition measured up to 30 mins; type: ADME, microsome; conditions: read-out: CLH
[19] = Drug metabolism in mouse liver microsomes assessed as DM1451 formation at 50 uM preincubated for 5 mins followed by NADPH addition measured after 30 mins by UPLC-MS analysis; type: ADME, microsome; conditions: 0.5 h
[20] = Drug metabolism in human liver microsomes assessed as OPC-14857 formation at 50 uM preincubated for 5 mins followed by NADPH addition measured after 30 mins by UPLC-MS analysis; type: ADME, microsome; conditions: 0.5 h
[21] = Drug metabolism in rat liver microsomes at 50 uM preincubated for 5 mins followed by NADPH addition measured after 30 mins by UPLC-MS analysis; type: ADME, microsome; conditions: 0.5 h
[22] = Cytotoxicity against human HepG2 cells assessed as ATP level at 100 uM after 120 mins by bioluminescence-based assay relative to control; type: cell-based; conditions: read-out: Activity
[23] = tested on: Mus musculus; experiment: Antidepressant-like activity in Swiss albino mouse assessed as decrease in immobility time at 5 mg/kg, ip administered 60 mins prior to test measured for last 4 mins of 6 mins observation by forced swim test; type: functional; design: scale not given: the % may be the effect or the level left
[24] = Cytotoxicity against HEK293 cells assessed as cell viability at 100 uM after 48 hrs by EZ4U labeling based assay relative to control; conditions: human, read-out: Activity
[25] = Drug metabolism in human liver microsomes at 50 uM preincubated for 5 mins followed by NADPH addition measured after 30 mins by UPLC-MS analysis; type: ADME, microsome; conditions: 0.5 h
[26] = tested on: Mus musculus; experiment: Antidepressant-like activity in Swiss albino mouse assessed as decrease in immobility time at 1.25 to 2.5 mg/kg, ip administered 60 mins prior to test measured for last 4 mins of 6 mins observation by forced swim test; type: functional, organism-based
[27] = tested on: Mus musculus; experiment: Anxiolytic-like activity in Swiss albino mouse assessed as increase in number of punished crossings at 10 mg/kg, ip administered for 60 mins measured for 1 min post 3 sec electric shock by four-plate test; type: functional
[28] = molecular target: Cytochrome P450 2D6 (Homo sapiens, UniProt P10635); experiment: Inhibition of CYP2D6 (unknown origin) at 0.025 to 25 uM using luciferin-ME EGE as substrate by CYP450-Glo assay; type: ADME
[29] = tested on: Mus musculus; experiment: Toxicity in Swiss albino mouse assessed as effect on spontaneous locomotor activity at 2.5 to 10 mg/kg, ip measured for 1 min; type: organism-based; conditions: in vivo
[30] = Drug metabolism in mouse liver microsomes at 50 uM preincubated for 5 mins followed by NADPH addition measured after 30 mins by UPLC-MS analysis; type: ADME, microsome; conditions: 0.5 h
[31] = Intrinsic clearance in human liver microsomes at 50 uM preincubated for 5 mins followed by NADPH addition measured up to 45 mins; type: ADME, microsome; conditions: read-out: CLH
[32] = molecular target: CYP2D6 (Homo sapiens, UniProt P10635); experiment: Inhibition of CYP2D6 (unknown origin) assessed as residual activity at 25 uM using luciferin-ME EGE as substrate by CYP450-Glo assay; type: ADME; conditions: CYP2D6 enzyme (unknown origin), probe luciferin-ME EGE, read-out: Activity
[33] = tested on: P-gp; experiment: Activity at recombinant human Pgp expressed in cell membranes assessed as basal ATPase activity at 50 uM after 40 mins by P-gp Glo assay relative to control; type: ADME; conditions: cell membranes expressing recombinant human P-gp, read-out: Activity
[34] = tested on: HepG2; experiment: Cytotoxicity against human HepG2 cells assessed as reduction in ATP level at 1 to 100 uM after 120 mins by bioluminescence-based assay; type: cell-based; conditions: hepg2, 2 h
[35] = tested on: Salmonella typhimurium; experiment: Mutagenicity in Salmonella typhimurium TA100 assessed as revertant colonies at 1 to 10 uM by Ames test; type: toxicity, organism-based; conditions: salmonella enterica subsp. enterica serovar typhimurium
[36] = tested on: Rattus norvegicus; experiment: Antidepressant-like activity in Wistar rat assessed as decrease in immobility time at 10 mg/kg, ip administered 60 mins prior to test measured for 5 mins by forced swim test; type: functional; design: scale not given: the % may be the effect or the level left
[37] = tested on: Rattus norvegicus; experiment: Toxicity in Wistar rat assessed as effect on spontaneous locomotor activity at 2.5 to 10 mg/kg, ip measured for 5 mins by open field test; type: organism-based; conditions: in vivo
[38] = tested on: Rattus norvegicus; experiment: Antidepressant-like activity in Wistar rat assessed as decrease in immobility time at 5 mg/kg, ip administered 60 mins prior to test measured for 5 mins by forced swim test; type: functional; design: scale not given: the % may be the effect or the level left
[39] = tested on: Mus musculus; experiment: Anxiolytic-like activity in Swiss albino mouse assessed as increase in number of punished crossings at 2.5 to 5 mg/kg, ip administered for 60 mins measured for 1 min post 3 sec electric shock by four-plate test; type: functional, organism-based
[40] = tested on: Mus musculus; experiment: Toxicity in Swiss albino mouse assessed as effect on spontaneous locomotor activity at 1.25 to 5 mg/kg, ip measured for 2 to 6 mins; type: organism-based; conditions: in vivo
[41] = tested on: HEK293; experiment: Cytotoxicity against HEK293 cells assessed as reduction in cell viability at 250 uM after 48 hrs by EZ4U labeling based assay; conditions: human, hek293, 48 h
[42] = Drug level in human liver microsomes treated with aripiprazole at 50 uM preincubated for 5 mins followed by NADPH addition measured after 30 mins by UPLC-MS analysis; type: ADME, microsome; conditions: 0.5 h
[43] = tested on: Mus musculus; experiment: Anxiolytic-like activity in Swiss albino mouse assessed as increase in number of punished crossings at 1.25 to 5 mg/kg, ip administered for 60 mins measured for 1 min post 3 sec electric shock by four-plate test; type: functional, organism-based
[44] = Activity at recombinant human Pgp expressed in cell membranes assessed as basal ATPase activity at 100 uM after 200 mins by P-gp Glo assay relative to control; type: ADME
[45] = Drug level in mouse liver microsomes treated with aripiprazole at 50 uM preincubated for 5 mins followed by NADPH addition measured after 30 mins by UPLC-MS analysis; type: ADME, microsome; conditions: 0.5 h
[46] = Drug level in rat liver microsomes treated with aripiprazole at 50 uM preincubated for 5 mins followed by NADPH addition measured after 30 mins by UPLC-MS analysis; type: ADME, microsome; conditions: 0.5 h

Chain of CYP2D6 (P10635 whole entry): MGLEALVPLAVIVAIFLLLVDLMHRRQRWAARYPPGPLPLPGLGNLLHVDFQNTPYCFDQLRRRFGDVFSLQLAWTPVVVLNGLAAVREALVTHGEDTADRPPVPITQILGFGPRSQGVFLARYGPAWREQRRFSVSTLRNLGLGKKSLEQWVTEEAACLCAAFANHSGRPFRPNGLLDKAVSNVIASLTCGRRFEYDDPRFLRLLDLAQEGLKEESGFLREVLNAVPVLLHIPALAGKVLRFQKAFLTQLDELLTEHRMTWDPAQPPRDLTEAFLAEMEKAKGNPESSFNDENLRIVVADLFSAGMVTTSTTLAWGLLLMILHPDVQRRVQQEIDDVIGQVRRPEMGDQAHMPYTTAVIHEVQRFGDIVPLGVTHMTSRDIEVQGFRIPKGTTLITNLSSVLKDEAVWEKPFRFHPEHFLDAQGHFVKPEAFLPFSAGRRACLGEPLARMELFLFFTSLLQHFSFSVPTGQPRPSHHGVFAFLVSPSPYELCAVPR
Chain of Cytochrome P450 2D6 (P10635 whole entry): as above

N#CC(C#N)=NNc1cccc(Cl)c1 [CARBONYL CYANIDE M-CHLOROPHENYLHYDRAZONE]
Activity [1]: 78%

CN(C)CCCN1c2ccccc2CCc2ccccc21 [IMIPRAMINE]
Activity [2]: Active
Activity [3]: 30%

COc1ccc(CCN(C)CCCC(C#N)(c2ccc(OC)c(OC)c2)C(C)C)cc1OC (stereo not given)
activity at 200 min, 200 µM [4]: > 160%

COc1cc(O)ccc1N1CCN(CC(O)CN2C(=O)NC(C)(c3ccc(F)cc3)C2=O)CC1 (stereo not given)
Drug metabolism [5]: Metabolite_Detected
Drug metabolism [6]: Metabolite_Detected
Retention_time [7]: 3.4 min
Drug metabolism [8]: Metabolite_Detected

CC1CCN(CC[C@H]2CCCN2S(=O)(=O)c2cccc(O)c2)CC1
Activity [9]: 22%
Activity [10]: 30%
Activity [11]: Active
Activity [12]: Active

Cn1c(=O)c2c(ncn2C)n(C)c1=O [CAFFEINE]
Papp at 5 h, 200 µM [13]: 3.61 ×10⁻⁶ cm/s

CCn1cc(C(=O)O)c(=O)c2cc(F)c(N3CCNCC3)cc21 [NORFLOXACIN]
Papp at 5 h, 200 µM [13]: 0.95 ×10⁻⁶ cm/s

COc1cccc2c1C(=O)c1c(O)c3c(c(O)c1C2=O)C[C@@](O)(C(=O)CO)C[C@@H]3O[C@H]1C[C@H](N)[C@H](O)[C@H](C)O1 [DOXORUBICIN]
Activity [14]: Toxic

O=C1CCc2ccc(OCCCCN3CCN(c4cccc(Cl)c4Cl)CC3)cc2N1 [ARIPIPRAZOLE]
Drug metabolism [15]: Metabolite_Detected
CLint scaled at 50 µM [16]: 12.5 mL/min/kg
Drug metabolism [17]: Metabolite_Detected
CLint scaled at 50 µM [18]: 7.02 mL/min/kg
Drug metabolism [19]: Metabolite_Detected
Drug metabolism [20]: Metabolite_Detected

COc1ccccc1N1CCN(CC(O)CN2C(=O)NC(C)(c3ccc(F)cc3)C2=O)CC1 (stereo not given)
Drug metabolism [21]: Metabolite_Detected
viability at 2 h, 100 µM [22]: 90%
Activity [23]: 36%
viability at 48 h, 100 µM [24]: 89.2%
Drug metabolism [25]: Metabolite_Detected
Activity [26]: inactive
Activity [27]: 30%
inhibition (INH) [28]: Not Active
CLint scaled at 50 µM [16]: 17.2 mL/min/kg
Activity [29]: Non-Toxic
Drug metabolism [30]: Metabolite_Detected
CLint scaled at 50 µM [31]: 8.2 mL/min/kg
activity at 25 µM [32]: 69.4%
activity at 40 min, 50 µM [33]: 88.7%
Activity [34]: Non-Toxic
Activity [35]: Non-Toxic
Activity [36]: 26%
CLint scaled at 50 µM [18]: 21.2 mL/min/kg
Activity [37]: Non-Toxic
Activity [38]: 35%
Activity [39]: inactive
Activity [40]: Non-Toxic
Papp at 5 h, 200 µM [13]: 2.3 ×10⁻⁶ cm/s
Activity [41]: Toxic

O=c1ccc2ccc(OCCCCN3CCN(c4cccc(Cl)c4Cl)CC3)cc2[nH]1
Drug metabolism [42]: Metabolite_Detected

CN1C(=O)CN=C(c2ccccc2)c2cc(Cl)ccc21
Activity [43]: Active

SODIUM ORTHOVANAD
Activity [44]: 0%

O=C1CCc2ccc(OCCCCN3CCN(c4ccc(O)c(Cl)c4Cl)CC3)cc2N1
Drug metabolism [45]: Metabolite_Detected
Drug metabolism [46]: Metabolite_Detected
